Test results: the supplement of paper PMC5844555

How the values were obtained:
Experiment in all cases: 3' UTR reporter interaction score (median-centred robust z-score of log2 firefly/Renilla activity); higher = less repression of the 3' UTR reporter
Conditions in all cases: HEK293T; 48 h
[1] = test system: TP53
How it was run: (§1)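 The interaction score is based on the log-transformed firefly/Renilla luciferase ratio, scaled as a robust z-score within each plate by median and median absolute deviation and median-centred for each miRNA; more negative scores indicate interaction. It was averaged over at least two independent screens. Readings were taken 48 h after HEK293T cells (10,000/well, 96-well plates) were co-transfected by DharmaFECT Duo with 100 ng firefly luc2P 3' UTR reporter, 20 ng Renilla pRL-TK and 2.5 pmol miRNA mimic.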

[2] = test system: EZH2
How it was run: as §1

[3] = test system: HRAS
How it was run: as §1

[4] = test system: FBXW7
How it was run: as §1

[5] = test system: MYCN
How it was run: as §1

[6] = test system: ZEB2
How it was run: as §1

[7] = test system: MYC
How it was run: as §1

[8] = test system: BRCA2
How it was run: as §1

[9] = test system: MYB
How it was run: as §1

[10] = test system: PHOX2B
How it was run: as §1

[11] = test system: PHF6
How it was run: as §1

[12] = test system: MYT1L
How it was run: as §1

[13] = test system: RB1
How it was run: as §1

[14] = test system: NOTCH1
How it was run: as §1

| Sequence | 3' UTR reporter interaction score [1] | 3' UTR reporter interaction score [2] | 3' UTR reporter interaction score [3] | 3' UTR reporter interaction score [4] | 3' UTR reporter interaction score [5] | 3' UTR reporter interaction score [6] | 3' UTR reporter interaction score [7] | 3' UTR reporter interaction score [8] | 3' UTR reporter interaction score [9] | 3' UTR reporter interaction score [10] | 3' UTR reporter interaction score [11] | 3' UTR reporter interaction score [12] | 3' UTR reporter interaction score [13] | 3' UTR reporter interaction score [14] |
| --- | --- | --- | --- | --- | --- | --- | --- | --- | --- | --- | --- | --- | --- | --- |
| UGGUAGACUAUGGAACGUA | -0.283 | -0.991 | -0.461 | 0.552 | 0.966 | 0.356 | -0.304 | -0.722 | 0.96 | -0.373 | -0.619 | 0.0286 | 1.85 | 0.639 |
| UGGUCUAGGAUUGUUGGAGGAG | 0.772 | 1.07 | 1.1 | -0.0822 | 0.689 | -1.89 | 0.131 | 0.659 | 0.332 | -0.574 | -1.9 | -1.45 | -0.907 | -3.72 |
| UGGUGCGGAGAGGGCCCACAGUG | -0.894 | -0.738 | -0.688 | 0.508 | 0.131 | 0.607 | -0.919 | -0.582 | -0.475 | 0.217 | 0.575 | 1.6 | 0.451 | 0.612 |
| UGGUGGGCCGCAGAACAUGUGC | 0.539 | -0.375 | -0.926 | 1.65 | 0.848 | 0.648 | 0.0166 | -0.495 | -0.29 | 0.685 | -0.487 | 1.92 | -1.35 | -1.38 |
| UGGUUCUAGACUUGCCAACUA | -0.646 | 0.495 | 0.292 | 0.0613 | 0.807 | 1.08 | 0.238 | -1.9 | 0.383 | -0.729 | 0.0797 | -0.905 | 0.0711 | -0.954 |
| UGGUUGACCAUAGAACAUGCGC | -0.14 | -1.23 | -0.568 | -0.743 | 1.49 | 2.61 | -0.769 | -0.794 | 2.68 | 1.74 | 0.184 | 3.19 | 3.51 | 2.11 |
| UGGUUUACCGUCCCACAUACAU | -0.635 | 0.684 | -0.0846 | 0.14 | 0.327 | 1.07 | -0.285 | -0.68 | 0.643 | 0.385 | -0.512 | 1.3 | 0.158 | -0.0746 |
| UGUAAACAUCCCCGACUGGAAG | -0.339 | 0.0787 | 0.945 | 0.0307 | -1 | -1.09 | -0.345 | -0.00428 | 0.447 | 0.775 | 0.331 | 0.873 | 1.18 | -0.121 |
| UGUAAACAUCCUACACUCAGCU | -0.377 | 0.233 | 1.01 | 0.842 | -0.781 | -1.14 | -0.616 | 0.276 | 0.789 | -0.561 | -1.63 | 0.998 | 0.456 | -0.804 |
| UGUAAACAUCCUACACUCUCAGC | 0.239 | -0.7 | 0.698 | 0.711 | -0.445 | -2.01 | -0.915 | 0.774 | 0.661 | 0.58 | 0.545 | 0.183 | 0.235 | -1.62 |
| UGUAGUGUUUCCUACUUUAUGGA | -0.138 | 0.133 | 0.941 | -0.472 | 1.22 | -2.54 | 0.753 | -3.32 | 0.85 | 0.885 | -0.93 | 1.44 | -0.511 | -0.00364 |
| UGUCACUCGGCUCGGCCCACUAC | 0.457 | 0.621 | -0.561 | 0.218 | 0.184 | -1.79 | -0.146 | 1.08 | 0.0813 | -0.663 | -0.284 | 0.664 | -0.766 | 0.551 |
| UGUCAGUUUGUCAAAUACCCC | -1.17 | -0.235 | 0.221 | -3.7 | 0.673 | 1.58 | 0.119 | -0.428 | 0.7 | 1.35 | -0.327 | 0.484 | 0.229 | 0.533 |
| UGUCUGCCCGCAUGCCUGCCUCU | -0.199 | 1.24 | -2.78 | 0.234 | -1.48 | -0.366 | -0.223 | 0.911 | -1.11 | -1.69 | 1.55 | 0.694 | 0.711 | -0.629 |
| UGUCUUGCAGGCCGUCAUGCA | -1.21 | -0.168 | 1.07 | 0.883 | -0.456 | -2.19 | 0.266 | -0.496 | -0.711 | 0.814 | -0.169 | 0.257 | 1.34 | 0.776 |
| UGUGACAGAUUGAUAACUGAAA | 0.555 | 0.213 | -0.136 | -0.255 | 0.0393 | 0.919 | 0.173 | -1.43 | 0.185 | 1.05 | -0.291 | -1.77 | 0.581 | 1.11 |
| UGUGACUGGUUGACCAGAGGG | 0.803 | 0.91 | -0.321 | -1.25 | -1.12 | 1.2 | 0.219 | 0.687 | -1.86 | 0.929 | 0.602 | -0.108 | -1.22 | 0.462 |

| Sequence | 3' UTR reporter interaction score [1] | 3' UTR reporter interaction score [2] | 3' UTR reporter interaction score [3] | 3' UTR reporter interaction score [4] | 3' UTR reporter interaction score [5] | 3' UTR reporter interaction score [6] | 3' UTR reporter interaction score [7] | 3' UTR reporter interaction score [8] | 3' UTR reporter interaction score [9] | 3' UTR reporter interaction score [10] | 3' UTR reporter interaction score [11] | 3' UTR reporter interaction score [12] | 3' UTR reporter interaction score [13] | 3' UTR reporter interaction score [14] |
| --- | --- | --- | --- | --- | --- | --- | --- | --- | --- | --- | --- | --- | --- | --- |
| UGUGCAAAUCCAUGCAAAACUGA | 0.0709 | 0.306 | -1.63 | 0.561 | -3.09 | -2.12 | 0.638 | -0.438 | -1.86 | -0.753 | 0.456 | -0.216 | 0.608 | -0.355 |
| UGUGCAAAUCUAUGCAAAACUGA | 0.088 | -0.0175 | -1.18 | 0.679 | -2.74 | -1.34 | -0.0223 | -0.799 | -0.797 | 0.393 | 0.299 | 0.342 | 0.548 | -0.179 |
| UGUGCUUGCUCGUCCCGCCCGCAG | -0.328 | -0.199 | -0.789 | -0.0879 | -0.114 | 0.763 | 0.429 | 0.879 | -0.522 | 0.4 | 1.4 | 0.198 | 0.514 | 0.256 |
| UGUGUCACUCGAUGACCACUGU | 0.4 | 1.04 | 1.13 | 1.58 | 0.203 | 0.295 | 0.947 | 0.0202 | -0.364 | 0.976 | -0.745 | -1.73 | -0.876 | -1.12 |
| UGUUUGCAGAGGAAACUGAGAC | -0.173 | 0.739 | 1.34 | -1.52 | 0.322 | -1.2 | 0.778 | -0.0179 | 1.43 | -0.484 | -0.0326 | -0.13 | -0.175 | -0.933 |
| UUAAGACUUGCAGUGAUGUUUAA | 1.42 | 0.772 | 0.424 | 1.23 | 0.438 | -4.05 | -0.159 | 0.155 | -1.14 | -0.221 | -1.09 | -0.158 | -2.53 | 0.344 |
| UUAAGGCACGCGGUGAAUGCCA | 0.35 | -1.56 | 0.364 | 0.904 | 0.541 | -0.335 | -0.0293 | -0.0269 | -2.16 | 0.282 | -1.29 | 2.33 | -1.9 | 0.623 |
| UUAAUGCUAAUCGUGAUAGGGG | 0.0933 | 1.21 | 0.347 | 0.373 | -0.313 | -0.523 | 0.891 | -0.67 | -1.61 | 0.553 | -0.0755 | -0.119 | -0.667 | 0.178 |
| UUACAGUUGUUCAACCAGUUACU | 0.131 | 0.156 | 0.218 | -1.36 | -1.85 | -1.76 | 0.385 | 1.74 | -0.553 | -0.835 | 1.47 | 0.162 | -3.47 | -0.374 |
| UUAUAAUACAACCUGAUAAGUG | -0.443 | 0.963 | 0.161 | -0.529 | 0.404 | -0.469 | 1.32 | 0.693 | -0.653 | -0.00808 | -0.286 | -1.13 | 1.94 | -0.345 |
| UUAUCAGAAUCUCCAGGGGUAC | -0.646 | -0.893 | 0.803 | 0.189 | -0.164 | 0.799 | 1.44 | 0.769 | 1.26 | -1.55 | 0.08 | -0.147 | -0.955 | 0.0518 |
| UUAUGGUUUGCCUGGGACUGAG | -1.16 | 0.163 | 0.369 | -3.46 | -0.255 | -0.72 | 0.675 | 0.104 | 1.44 | 0.156 | -0.769 | 1.06 | -0.796 | -0.409 |
| UUCAACGGGUAUUUAUUGAGCA | 0.52 | 0.563 | 1.35 | 0.647 | 0.423 | -0.63 | -0.455 | 0.803 | -0.5 | 0.542 | -0.872 | -0.699 | 0.475 | -0.631 |
| UUCAAGUAAUCCAGGAUAGGC | 0.423 | -4.57 | -0.41 | 1.99 | -0.368 | -0.465 | -1.71 | 1.36 | 1.11 | -0.534 | -0.0329 | 1.27 | -0.662 | 1.68 |
| UUCAAGUAAUUCAGGAUAGGUU | -0.282 | -4.18 | -1.14 | 1.51 | 0.732 | 0.133 | -1.49 | 0.455 | 1.26 | 0.967 | -0.939 | 1.44 | -1.95 | 1.02 |
| UUCACAGGGAGGUGUCAUUUAU | 0.0668 | 1.32 | 0.0679 | -3.1 | 1.06 | -0.846 | 0.377 | -0.226 | -0.536 | -0.65 | -1.72 | 0.885 | 0.105 | 0.269 |
| UUCACAGUGGCUAAGUUCUGC | -0.662 | -0.367 | -1.25 | -3.31 | 0.736 | 0.787 | -0.0656 | -0.687 | 1.56 | 0.845 | 0.752 | 0.34 | 0.0429 | 1.04 |
